{"source": "patent US20230027495A1", "about": "“METHODS OF TREATING CANCER WITH A COMBINATION OF AN ANTI-PD-1 ANTIBODY AND AN ANTI-TISSUE FACTOR ANTIBODY-DRUG CONJUGATE” (Genmab A/S, priority 2019, published 2023)", "key": {"[1]": {"tested_on": "murine tumor cells that stably express human TF", "test": "Immunization of Balb/c mice with drug-killed human TF positive murine tumor cells, then tumor challenge (syngeneic model)", "type": "in vivo", "conditions": "mice immunized with drug-killed human TF positive tumor cells", "method": "Mouse tumor cells are transfected with plasmid constructs encoding human tissue factor (TF) and sgRNA-guided Cas9 nuclease (sgRNA/Cas9) to generate a murine cell line that expresses the human TF. Fluorescence activated cell sorting (FACS) yields a clonal population of murine tumor cells that stably express human TF, these cells are then treated with 1 μg to 5 μg per ml of tisotumab vedotin or 100 nM of MMAE for 4 days. In order to prepare dying cells for immunization, treated murine tumor cells are overlaid atop Histopaque, and centrifuged at 2000 g for 30 minutes. Dead and dying cells are pelleted underneath the Histopaque layer, and viability assessed by trypan blue exclusion. A sample with approximately <20% live cells as measured by trypan blue exclusion is obtained. Flash-frozen tumor cells are prepared by submerging the cells in liquid nitrogen for 10 seconds, followed by immersion in 37° C. water until completely thawed. The liquid nitrogen freeze-thaw process is repeated 5 times. Dead and dying human TF positive tumor cells are resuspended in phosphate buffered saline (PBS) and 2×10^6 cells are injected into the peritoneum of immune-competent Balb/c mice. Seven days later, mice receive a second immunization with dead and dying cells prepared in the same manner.\nFourteen days after initial immunization with the dead and dying human TF positive tumor cells, mice are subcutaneously implanted with 5×10^6 wild-type tumor cells and monitored for tumor growth. […] As these effects occur in the absence of any administered therapeutic agent, the administration of cells killed by tisotumab vedotin or MMAE is sufficient to generate long-lasting protective immune memory against subsequent tumor cell challenge. Protective immune memory is amplified by treating these mice with tisotumab vedotin in combination with an antibody that binds to murine PD-1."}, "MDA-MB-231 xenograft": {"tested_on": "MDA-MB-231 xenograft", "test": "MDA-MB-231 xenograft model in humanized NSG mice", "type": "in vivo", "method": "The in vivo anti-tumor efficacy of tisotumab vedotin in combination with an anti-PD-1 monoclonal antibody was evaluated in NOD.Cg-PrkdC^scid Il2rg^tm1Wj1/SzJ (NSG) immunodeficient mice (The Jackson Laboratory, Stock No. 005557), humanized by engraftment with human CD34^+ hematopoietic stem cells (Jackson Laboratories, Sacramento). Mice were subcutaneously inoculated with 5×10^6 MDA-MB-231 cells (breast adenocarcinoma; American Tissue Culture Collection (ATCC), cat. no. HTB-26), in 100 μL phosphate-buffered saline (PBS). Before inoculation, cells were cultured in DMEM with high glucose and HEPES without L-glutamine (Lonza, cat. no. BE12-709F), 10% (v/v) donor bovine serum with iron New Zealand Origin (Thermo Fisher Scientific, DBSI, cat. no. 10371-029), 2 mM L-glutamine (Lonza, cat. no. BE17-605E), 1 mM Na-pyruvate (Lonza, cat. no. BE13-115E), MEM non-essential amino acids (Life Technologies, cat. no. 11140) and 1% (v/v) penicillin/streptomycin (Lonza, cat. no. DE17-603E), in CellSTACK culture chambers (Corning, cat. no. 3313).\nTumor size was determined by caliper measurement at least two times a week and tumor volume was calculated as 0.52×length×width^2. When tumors reached the size of 100 mm^3 mice were randomized in 7 groups (8 mice per treatment group) based on mouse cohort and tumor size (Table 1). Mice were treated with tisotumab vedotin alone (1 mg/kg or 0.5 mg/kg), intravenously, weekly for a maximum of five treatments, or in combination with an anti-PD-1 antibody (i.e., pembrolizumab, KEYTRUDA®, 50 mg concentrate, Merck & Co., Inc., Kenilworth, N.J. USA) or with anti-PD-1 antibody alone. The first dose of the anti-PD-1 antibody (i.e., pembrolizumab) was 10 mg/kg, followed by 5 mg/kg every five days for a maximum of six treatments. Mice in control groups were administered 1 mg/kg of IgG1 isotype control antibody or IgG1 isotype control antibody conjugated to MMAE intravenously, weekly for a maximum of five treatments (Table 1). The IgG1 isotype control antibody is the b12 antibody which is known to bind to HIV-1 gp120. […]"}, "[2]": {"tested_on": "human peripheral blood mononuclear cells (PBMCs)", "test": "Monocyte/macrophage activation in human PBMCs fed drug-killed MDA-MB-231 cells", "type": "cell-based", "excerpt": "FIGS. 7A and 7B is a series of graphs in which Tissue Factor positive MDA-MB-231 cells killed with various agents were fed to human peripheral blood mononuclear cells (PBMCs) and immune activation assessed by increased expression of activations markers on innate CD14+ monocyte/macrophages and induction of chemokine and cytokine production.\nImmunogenic cell death, as mediated by MMAE, is regulated cell death that activates adaptive immune responses against antigens from dead and dying tumor cells, and allows for the generation of robust innate immune cell activation and subsequent cytotoxic T cell responses targeted towards specific tumor cell antigens. […] Furthermore, these monocyte/macrophages conditioned by ICD-killed cells promote activation of T cells, as evidenced by production of signature inflammatory cytokines associated with cytotoxic T cell responses."}, "[3]": {"tested_on": "HPAFII (pancreatic carcinoma) and MDA-MB-231 (breast carcinoma) cells", "test": "Western blot of ER stress pathways in HPAFII and MDA-MB-231 cells", "type": "cell-based", "method": "Induction of cell death and release of ICD danger signals occurs concomitant with initiation of an ER stress response. Two Tissue Factor positive cell lines, HPAFII (pancreatic carcinoma) and MDA-MB-231 (breast cell carcinoma) were exposed to tisotumab vedotin ADC, an Isotype-MMAE ADC (H00-MMAE, IgG1 MMAE), or free MMAE for 18 hours and induction of ER stress monitored by western blot analysis. Phosphorylation of inositol-requiring transmembrane kinase/endonuclease 1 (IRE1) was detected after treatment with tisotumab vedotin ADC or MMAE free drug (FIG. 6). […] The ability for auristatins to prime the immune system to recognize tumor antigens opens the door for a myriad of combinatorial therapeutic options."}, "[4]": {"tested_on": "human peripheral blood mononuclear cells (PBMCs)", "test": "T cell activation in CSFE labeled human PBMCs fed drug-killed MDA-MB-231 cells, with or without pembrolizumab", "type": "cell-based", "conditions": "PBMCs fed drug-exposed MDA-MB-231 cells, 48 hours", "excerpt": "Induction of the innate immune response following exposure to cancer cells undergoing ICD sets up secondary T cell activation, which can be enhanced by concomitant pembrolizumab treatment."}, "[5]": {"tested_on": "Tissue Factor positive cell lines", "test": "Cell death and ATP/HMGB1 release from Tissue Factor positive cell lines", "type": "cell-based", "conditions": "for activity across multiple Tissue Factor positive cell lines: release of ICD related molecules", "excerpt": "Auristatin ADC payloads disrupt the microtubule networks resulting in altered ER localization and function, which ultimately results in ER stress."}, "[6]": {"tested_on": "relapsed, recurrent, and/or metastatic cervical cancer", "conditions": "cited from earlier work"}, "[7]": {"conditions": "HPAFII and MDA-MB-231 cells, 18 hours"}, "[8]": {"conditions": "subjects who received tisotumab vedotin"}}, "note": "“Also recorded” adds a separate entry of the source.", "data": [{"substance": "tisotumab vedotin: antibody-drug conjugate comprising an antibody that binds to tissue factor (TF), a protease-cleavable linker, and the microtubule disrupting agent MMAE", "values": [{"measurement": "survival after challenge with wild-type tumor cells", "setting": "[1]", "result": "increased survival"}, {"measurement": "tumor growth after challenge with wild-type tumor cells", "setting": "[1]", "result": "delayed tumor growth"}, {"measurement": "tumor burden as assessed by tumor volume", "setting": "MDA-MB-231 xenograft; tisotumab vedotin 0.5 mg/kg IV weekly", "result": "efficiently reduced tumor burden"}, {"measurement": "tumor burden as assessed by tumor volume", "setting": "MDA-MB-231 xenograft; tisotumab vedotin 1.0 mg/kg IV weekly", "result": "efficiently reduced tumor burden"}, {"measurement": "monocyte/macrophage activation by CD86 expression", "setting": "[2]; CD14+ monocyte/macrophages, flow cytometry, PBMCs fed killed MDA-MB-231 cells, compared to IgG1-MMAE ADC or tisotumab alone", "result": "drove monocyte/macrophage activations"}, {"measurement": "release of innate chemokines", "setting": "[2]; PBMCs fed killed MDA-MB-231 cells, compared to IgG1-MMAE ADC or tisotumab alone", "result": "induced release of innate chemokines including MIP10"}, {"measurement": "chemotactic and inflammatory mediators from monocyte/macrophages", "setting": "[2]; after uptake of killed Tissue Factor positive cells", "result": "elicit strong chemotactic and inflammatory mediators"}, {"measurement": "activation of JNK (phosphorylation)", "setting": "[3]; [7]", "result": "increased phosphorylation"}, {"measurement": "activation of PERK pathway (ATF4 cleavage)", "setting": "[3]; [7]", "result": "upregulation of ATF4 cleavage"}, {"measurement": "phosphorylation of IRE1", "setting": "[3]; [7]", "result": "detected"}, {"measurement": "activation of ER stress pathways (phosphorylation of IRE and JNK, cleavage of ATF4)", "setting": "[3]; HPAFII or MDA-MB-231 cells, 16 hours", "result": "trigger multiple ER stress pathways"}, {"measurement": "T cell proliferation (CSFE dilution)", "setting": "[4]", "result": "drove T cell proliferation"}, {"measurement": "production of IFNγ", "setting": "[4]", "result": "increased; also recorded: production of T cell specific cytokines"}, {"measurement": "production of IL12p70", "setting": "[4]", "result": "increased; also recorded: production of T cell specific cytokines"}, {"measurement": "ATP secretion/release", "setting": "[5]; Tissue Factor positive cells", "result": "drove robust A) ATP secretion; also recorded: release the ICD related molecules"}, {"measurement": "HMGB1 release", "setting": "[5]; Tissue Factor positive cells", "result": "HMGB1 release; also recorded: release the ICD related molecules"}, {"measurement": "cell death", "setting": "[5]; Tissue Factor positive cells", "result": "undergo cell death"}, {"measurement": "activity across multiple Tissue Factor positive cell lines", "setting": "[5]", "result": "occurs across multiple Tissue Factor positive cell lines"}, {"measurement": "activity across multiple Tissue Factor positive cell lines", "setting": "[5]; listed as Tisotumab vedotin", "result": "active on multiple Tissue Factor positive cell lines"}, {"measurement": "efficacy", "setting": "[6]; 2.0 mg/kg tisotumab vedotin", "result": "robust efficacy"}, {"measurement": "safety profile", "setting": "[6]; 2.0 mg/kg tisotumab vedotin", "result": "manageable safety profile"}, {"measurement": "grade of epistaxis cases", "setting": "[6]; nearly all of the cases", "result": "grade 1"}, {"measurement": "grade of the majority of reported peripheral neuropathy cases", "setting": "[6]; [8]", "result": "grade 1-2"}, {"measurement": "peripheral neuropathy as cause of permanent discontinuation", "setting": "[6]; [8]", "result": "leading cause of permanently discontinuation"}, {"measurement": "subjects with peripheral neuropathy", "setting": "[6]; [8]", "result": "approximately 35%"}, {"measurement": "AEs of grade 1-2 conjunctivitis", "setting": "[6]; tisotumab vedotin alone", "result": "frequently reported"}, {"measurement": "clinically relevant perturbations in aPTT or PT", "setting": "[6]; tisotumab vedotin", "result": "have not been observed"}, {"measurement": "epistaxis (bleeding AE) frequency", "setting": "[6]; tisotumab vedotin", "result": "most common reported AE"}]}, {"substance": "tisotumab", "values": [{"measurement": "T cell proliferation (CSFE dilution)", "setting": "[4]", "result": "did not elicit these responses"}, {"measurement": "production of IFNγ", "setting": "[4]", "result": "did not elicit these responses"}, {"measurement": "production of IL12p70", "setting": "[4]", "result": "did not elicit these responses"}]}]}
